According to patent publication US9596874B2, “Bitter taste masking compositions and method of masking bitter taste” (Givaudan S.A., priority 2010, dated 2017):

Assay: Panel tasting of KCl/NaCl solutions in water
Details: for masking of the off-notes of KCl: 5000 ppm sugar alcohol in water with 1600 ppm KCl and 800 ppm NaCl, panel of professional tasters
Description: Three solutions were prepared: • A 1600 ppm of KCl and 800 ppm of NaCl in water • B 1600 ppm of KCl and 800 ppm of NaCl in water containing 5000 ppm of mannitol • C 1600 ppm of KCl and 800 ppm of NaCl in water containing 5000 ppm of dulcitol The solutions were compared by a panel of professional tasters.

OC[C@@H](O)[C@H](O)[C@H](O)[C@@H](O)CO [dulcitol, Galactitol (=dulcitol)]
masking compared with mannitol (5000 ppm dulcitol vs 5000 ppm mannitol, 1600 ppm KCl and 800 ppm NaCl in water, panel): noticeably better in masking
taste perception (5000 ppm dulcitol, 1600 ppm KCl and 800 ppm NaCl in water, panel): more positive, described as ‘rounded-off’, perception
masking of the off-notes of KCl: mask the off-notes KCl well

OC[C@@H](O)[C@@H](O)[C@H](O)[C@H](O)CO [mannitol, Mannitol]
masking of the off-notes of KCl: mask the off-notes KCl well
